What was measured:
Type in all cases: cell-based
[1] = tested on: hTERT (telomerase-immortalized normal epithelial cell line); assay: Cytotoxicity (sulforhodamine B growth assay), Protocol A, hTERT cells; conditions: 62.5-250 μg/ml added on day of plating, replenished every 3 days
Protocol: (§1) The cell lines selected were KB (human epidermoid carcinoma in the mouth, ATCC #CCL-17), Lu-1 (human lung cancer cell lines, obtained from the Department of Surgical Oncology, University of Illinois, College of Medicine), and hTERT (telomerase-immortalized normal epithelial cell line, Clontech #C4000-1). Various doses of the compounds were evaluated under two treatment protocols. In Protocol A, cultures of each of the KB, Lu and hTERT cells were treated with various doses of the three conjugate compounds from the day of culture onward. In Protocol B, cultures of each of the KB, Lu and hTERT cells were grown to confluence (9 days), and then treated with various doses of the Transferrin-7-paclitaxel conjugate for the duration of the experiment.
(§2) KB was cultured in DMEM (GIBCO) supplemented with 10% fetal bovine serum (FBS), 100 units/ml penicillin G, 100 μg/ml streptomycin sulfate, 0.25 μg/ml amphotericin B (Fungizone) (PSF) (GIBCO) and 1% non-essential amino acids (NAA) (Sigma). Lu was maintained in MEME (GIBCO) supplemented with 10% FBS, PSF, and 1% NAA. hTERT-RPE1 was maintained in DMEM/F-12 (GIBCO) supplemented with 10% FBS+PSF. All cell lines were cultured at 37° C. in 100% humidity with a 5% CO2 atmosphere in air.
(§3) The overall procedures were those as described by Skehan et al., New calorimetric cytotoxicity assay for anticancer-drug screening, J. Natl. Cancer Inst. 82:1107-1112, 1990, and Likhitwitayawuid et al., Cytotoxic and antimalarial bisbenzylisoquinoline alkaloids from Stephania erecta. J. Nat. Prod. 56:30-38, 1993. Cells were typically grown to 60-70% confluence, the medium was changed, and the cells were used for test procedures one day later. Test samples were initially dissolved in sterilized PBS. Serial dilutions were performed using PBS as the solvent, and 10 μl were added to the three wells. PBS (10 μl) was added to control groups. […] The plates were placed on a shaker for 5 minutes, and the absorption was determined at 515 nm using an ELISA plate reader. […]

[2] = tested on: KB (human epidermoid carcinoma in the mouth); assay: Cytotoxicity (sulforhodamine B growth assay), Protocol A, KB cells; conditions: for effect on cell growth (optical density versus time): 62.5-250 μg/ml added on day of plating, replenished every 3 days
Protocol: as §1, §2
(§4) The overall procedures were those as described by Skehan et al., New calorimetric cytotoxicity assay for anticancer-drug screening, J. Natl. Cancer Inst. 82:1107-1112, 1990, and Likhitwitayawuid et al., Cytotoxic and antimalarial bisbenzylisoquinoline alkaloids from Stephania erecta. J. Nat. Prod. 56:30-38, 1993. Cells were typically grown to 60-70% confluence, the medium was changed, and the cells were used for test procedures one day later. Test samples were initially dissolved in sterilized PBS. Serial dilutions were performed using PBS as the solvent, and 10 μl were added to the three wells. PBS (10 μl) was added to control groups. After the plates were prepared, cells were removed from the tissue culture flasks by treatment with trypsin, enumerated, and diluted with fresh media. KB (3×10^4 cells/ml), Lu (5×10^4 cell/ml) and hTERT-RPE1 (4×10^4 cells/ml) cells (in 190 μl of media) were added to the 96-well plates. The plates were incubated at 37° C. in 5% CO2, the cells fixed by addition of 100 μl of cold 20% trichloroacetic acid and incubated at 4° C. for 30 min. The plates were washed with tap water (3×) and dried overnight. The fixed cells were stained 30 min by the addition of 100 μl of 0.4% sulforhodamine B (w/v) dissolved in 1% acetic acid. The plates were washed with 1% acetic acid (3×) and allowed to dry. The bound dye was solubilized by the addition of 10 mM unbuffered Tris base, pH 10 (200 μl/well). The plates were placed on a shaker for 5 minutes, and the absorption was determined at 515 nm using an ELISA plate reader. In each case, a zero-day control was performed by adding an equivalent number of cells to several wells of the 96-well plates and incubating at 37° C. for a period of 30 min. The cells were then fixed with tichloroacetic acid and processed as described above.
The first series of studies were conducted with the Transferrin-3-cholesterol conjugate, the Transferrin-rhodamine123 conjugate and the Transferrin-7-paclitaxel conjugate following Protocol A, in which various concentrations of test compounds ranging from 62.5-250 μg/ml were added on the day of plating, and media were replenished every 3 days, maintaining the same concentrations of the test compounds. As shown by plotting optical density versus time, the Transferrin-3-cholesterol conjugate and the Transferrin-rhodamine123 conjugate were not active with any of the cell lines (FIGS. 5, 6, 8, 9, 11, 12).
Therefore, the experiment was repeated with the Transferrin-7-paclitaxel conjugate with lower concentrations.

[3] = tested on: Lu-1 (human lung cancer cell lines); assay: Cytotoxicity (sulforhodamine B growth assay), Protocol A, Lu cells; conditions: 62.5-250 μg/ml added on day of plating, replenished every 3 days
Protocol: as §1, §2, §3

[4] = tested on: KB (human epidermoid carcinoma in the mouth); assay: Cytotoxicity (sulforhodamine B growth assay), Protocol B (confluent cultures), KB cells; conditions: KB cells grown 9 days before treatment
Protocol: as §1, §2, §3

[5] = tested on: Lu-1 (human lung cancer cell lines); assay: Cytotoxicity (sulforhodamine B growth assay), Protocol B (confluent cultures), Lu cells; conditions: Lu cells grown 9 days before treatment
Protocol: as §1, §2, §3

[6] = tested on: hTERT (telomerase-immortalized normal epithelial cell line); assay: Cytotoxicity (sulforhodamine B growth assay), Protocol B (confluent cultures), hTERT cells; conditions: for effect on cell growth: hTERT cells grown 9 days before treatment
Protocol: as §1, §2, §4

Row | Substance | effect on cell growth (optical density versus time) [1] | effect on cell growth (optical density versus time) [2] | effect on cell growth (optical density versus time) [3] | effect on cell growth ([2]; 0.5 μg/ml) | effect on cell growth ([2]; 5 μg/ml) | effect on cell growth ([2]; 50 μg/ml) | effect on cell number ([4]; 0.5 μg/ml) | effect on cell number ([4]; 5 μg/ml) | effect on cell number ([4]; 50 μg/ml) | effect on cell number (reduction relative to that at 50 μg/ml) ([5]; 0.5 μg/ml) | effect on cell number (reduction relative to that at 50 μg/ml) ([5]; 5 μg/ml) | effect on cell number ([5]; 50 μg/ml) | selectivity: cancer cells (KB and Lu) versus normal cells (hTERT) ([6]; conclusion from KB, Lu and hTERT results) | effect on cell growth ([6]; 0.5 μg/ml) | effect on cell growth ([6]; 5 μg/ml) | effect on cell growth ([6]; 50 μg/ml) | cell number on day 16 ([6]; hTERT cells, 50 μg/ml, day 16 versus day 9)
1 | Transferrin-rhodamine123 conjugate: rhodamine123 linked to Transferrin using glutaraldehyde as a linker between free amino groups | not active | not active | not active | – | – | – | – | – | – | – | – | – | – | – | – | – | –
2 | Transferrin-3-cholesterol conjugate: 3-acyl-pentanal cholesterol linked with Transferrin; non-cytotoxic molecule control conjugate | not active | not active | not active | – | – | – | – | – | – | – | – | – | – | – | – | – | –
3 | Transferrin-7-paclitaxel conjugate: 7-acyl-pentanal paclitaxel linked to Transferrin through Schiff base; 3 paclitaxel per Transferrin | complete inhibition of cell growth | complete inhibition of cell growth | complete inhibition of cell growth | no effect on growth | complete growth inhibition | complete growth inhibition | cell number paralleled that of the control | significant reduction in cell number | significant reduction in cell number | negated | diminished | significant reduction in cell number | primarily targeting cancer cells (KB and Lu) while not significantly affecting normal cells (hTERT) | Slight increases in cell growth | Slight increases in cell growth | growth was diminished | approximately the same as on day 9

Reference: patent US6825166B2 (priority 2001, dated 2004)
